Experiments:
Type in all cases: binding
[1] = target: T1, SW480 colon carcinoma cells lysate proteins (Homo sapiens, UniProt O00154); details: PreyGene ACOT7
T1 sequence (O00154 1-380): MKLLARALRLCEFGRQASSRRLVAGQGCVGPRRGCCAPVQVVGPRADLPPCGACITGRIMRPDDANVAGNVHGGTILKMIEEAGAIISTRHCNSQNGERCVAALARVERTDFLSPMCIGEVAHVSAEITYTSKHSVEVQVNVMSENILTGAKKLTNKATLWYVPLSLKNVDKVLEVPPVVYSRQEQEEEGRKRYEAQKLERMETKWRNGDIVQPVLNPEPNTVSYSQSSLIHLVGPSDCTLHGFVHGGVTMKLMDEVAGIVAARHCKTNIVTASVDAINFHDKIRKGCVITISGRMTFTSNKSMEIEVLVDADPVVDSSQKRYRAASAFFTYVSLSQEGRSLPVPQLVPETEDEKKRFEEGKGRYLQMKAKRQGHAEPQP

[2] = target: SW480 colon carcinoma cells lysate proteins (Homo sapiens, UniProt O43399); details: PreyGene TPD52L2
[3] = target: T2, SW480 colon carcinoma cells lysate proteins (Homo sapiens, UniProt P00492); details: PreyGene HPRT1
T2 sequence (P00492 1-218): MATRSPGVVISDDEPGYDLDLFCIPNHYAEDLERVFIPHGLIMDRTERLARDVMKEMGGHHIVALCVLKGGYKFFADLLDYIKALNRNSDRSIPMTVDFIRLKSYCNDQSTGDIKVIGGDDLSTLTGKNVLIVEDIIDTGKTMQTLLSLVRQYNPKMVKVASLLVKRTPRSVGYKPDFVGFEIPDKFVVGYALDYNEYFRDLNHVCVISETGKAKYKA

[4] = target: SW480 colon carcinoma cells lysate proteins (Homo sapiens, UniProt P14625); details: PreyGene HSP90B1
[5] = target: SW480 colon carcinoma cells lysate proteins (Homo sapiens, UniProt P15531); details: PreyGene NME1
[6] = target: SW480 colon carcinoma cells lysate proteins (Homo sapiens, UniProt P30153); details: PreyGene PPP2R1A
[7] = target: T3, SW480 colon carcinoma cells lysate proteins (Homo sapiens, UniProt P32119); details: PreyGene PRDX2
T3 sequence (P32119 1-198): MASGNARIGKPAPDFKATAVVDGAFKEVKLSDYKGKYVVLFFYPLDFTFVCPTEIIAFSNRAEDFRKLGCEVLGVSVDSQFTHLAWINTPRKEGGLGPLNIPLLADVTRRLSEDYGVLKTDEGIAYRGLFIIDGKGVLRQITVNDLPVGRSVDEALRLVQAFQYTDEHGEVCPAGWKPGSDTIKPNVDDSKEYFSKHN

[8] = target: T4, SW480 colon carcinoma cells lysate proteins (Homo sapiens, UniProt P54577); details: PreyGene YARS
T4 sequence (P54577 1-528): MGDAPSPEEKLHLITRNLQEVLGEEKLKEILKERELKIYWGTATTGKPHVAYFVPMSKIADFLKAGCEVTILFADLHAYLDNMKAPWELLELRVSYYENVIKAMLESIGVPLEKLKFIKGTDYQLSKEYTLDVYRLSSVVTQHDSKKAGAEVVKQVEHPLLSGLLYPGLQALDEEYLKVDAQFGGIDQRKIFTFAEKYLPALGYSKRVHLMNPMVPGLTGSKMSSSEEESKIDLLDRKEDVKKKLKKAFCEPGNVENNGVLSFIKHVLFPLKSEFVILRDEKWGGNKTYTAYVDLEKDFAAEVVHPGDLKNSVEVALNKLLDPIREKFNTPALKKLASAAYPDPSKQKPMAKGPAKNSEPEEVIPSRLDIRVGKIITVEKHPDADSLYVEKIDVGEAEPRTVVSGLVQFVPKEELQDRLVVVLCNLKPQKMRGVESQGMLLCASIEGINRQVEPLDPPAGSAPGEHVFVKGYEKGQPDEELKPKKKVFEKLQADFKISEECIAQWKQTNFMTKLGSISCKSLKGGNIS

[9] = target: SW480 colon carcinoma cells lysate proteins (Homo sapiens, UniProt P63313); details: PreyGene TMSB10
[10] = target: SW480 colon carcinoma cells lysate proteins (Homo sapiens, UniProt Q01518); details: PreyGene CAP1
[11] = target: SW480 colon carcinoma cells lysate proteins (Homo sapiens, UniProt Q13283); details: PreyGene G3BP1; SW480 cells
Chain of SW480 colon carcinoma cells lysate proteins (Homo sapiens, UniProt Q13283) (Q13283 whole entry): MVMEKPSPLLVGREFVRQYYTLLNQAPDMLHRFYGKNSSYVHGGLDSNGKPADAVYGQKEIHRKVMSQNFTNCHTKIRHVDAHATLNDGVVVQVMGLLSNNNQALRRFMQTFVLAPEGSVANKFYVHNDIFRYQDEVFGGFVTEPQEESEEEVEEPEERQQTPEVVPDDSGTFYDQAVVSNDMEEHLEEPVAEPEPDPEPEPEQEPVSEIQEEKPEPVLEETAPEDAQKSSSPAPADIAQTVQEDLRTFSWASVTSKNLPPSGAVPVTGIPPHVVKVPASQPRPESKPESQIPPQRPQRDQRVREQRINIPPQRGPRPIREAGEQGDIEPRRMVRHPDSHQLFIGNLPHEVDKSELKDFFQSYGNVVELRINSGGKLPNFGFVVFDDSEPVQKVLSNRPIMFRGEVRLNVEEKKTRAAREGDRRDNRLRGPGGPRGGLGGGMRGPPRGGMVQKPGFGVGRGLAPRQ

Chain of SW480 colon carcinoma cells lysate proteins (Homo sapiens, UniProt Q01518) (Q01518 whole entry): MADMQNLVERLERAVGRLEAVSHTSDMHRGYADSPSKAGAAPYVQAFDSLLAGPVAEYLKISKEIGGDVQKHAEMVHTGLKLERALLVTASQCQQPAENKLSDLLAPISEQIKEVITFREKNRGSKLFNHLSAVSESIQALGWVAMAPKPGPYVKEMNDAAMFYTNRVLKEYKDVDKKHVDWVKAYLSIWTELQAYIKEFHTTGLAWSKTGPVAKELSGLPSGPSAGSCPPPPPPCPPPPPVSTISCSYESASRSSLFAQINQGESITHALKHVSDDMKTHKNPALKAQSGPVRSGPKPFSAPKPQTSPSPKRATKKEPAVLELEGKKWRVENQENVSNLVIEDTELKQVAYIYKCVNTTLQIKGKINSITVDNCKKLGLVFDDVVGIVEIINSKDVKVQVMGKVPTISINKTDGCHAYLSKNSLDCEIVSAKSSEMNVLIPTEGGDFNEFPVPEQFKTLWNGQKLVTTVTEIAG
Chain of SW480 colon carcinoma cells lysate proteins (Homo sapiens, UniProt P63313) (P63313 whole entry): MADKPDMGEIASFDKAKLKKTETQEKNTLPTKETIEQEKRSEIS
Chain of SW480 colon carcinoma cells lysate proteins (Homo sapiens, UniProt P30153) (P30153 whole entry): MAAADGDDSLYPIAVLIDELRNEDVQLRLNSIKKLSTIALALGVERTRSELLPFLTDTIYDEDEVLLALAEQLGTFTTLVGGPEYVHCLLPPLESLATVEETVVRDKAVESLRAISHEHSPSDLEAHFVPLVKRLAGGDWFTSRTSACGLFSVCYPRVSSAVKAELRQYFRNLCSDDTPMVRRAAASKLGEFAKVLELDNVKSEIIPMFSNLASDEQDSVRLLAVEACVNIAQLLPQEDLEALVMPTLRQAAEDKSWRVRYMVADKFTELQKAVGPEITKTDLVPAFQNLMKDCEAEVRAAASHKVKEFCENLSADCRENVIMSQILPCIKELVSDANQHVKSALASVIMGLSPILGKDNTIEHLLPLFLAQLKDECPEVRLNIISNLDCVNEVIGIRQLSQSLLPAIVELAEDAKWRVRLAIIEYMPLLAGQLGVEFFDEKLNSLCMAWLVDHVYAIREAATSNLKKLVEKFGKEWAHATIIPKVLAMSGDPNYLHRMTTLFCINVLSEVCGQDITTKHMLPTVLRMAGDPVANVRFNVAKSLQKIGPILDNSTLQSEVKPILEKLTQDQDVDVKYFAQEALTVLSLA
Chain of SW480 colon carcinoma cells lysate proteins (Homo sapiens, UniProt P15531) (P15531 whole entry): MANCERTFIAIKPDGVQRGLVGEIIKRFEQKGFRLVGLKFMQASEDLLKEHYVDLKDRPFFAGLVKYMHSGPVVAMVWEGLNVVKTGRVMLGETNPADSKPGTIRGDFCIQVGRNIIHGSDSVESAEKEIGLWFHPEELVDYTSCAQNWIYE
Chain of SW480 colon carcinoma cells lysate proteins (Homo sapiens, UniProt O43399) (O43399 whole entry): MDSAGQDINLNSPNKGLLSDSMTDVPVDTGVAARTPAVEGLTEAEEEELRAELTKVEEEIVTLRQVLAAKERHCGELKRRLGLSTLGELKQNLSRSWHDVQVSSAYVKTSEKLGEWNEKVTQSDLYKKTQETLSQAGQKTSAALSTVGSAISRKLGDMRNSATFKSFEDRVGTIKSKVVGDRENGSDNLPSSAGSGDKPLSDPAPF
Chain of SW480 colon carcinoma cells lysate proteins (Homo sapiens, UniProt P14625) (P14625 22-803): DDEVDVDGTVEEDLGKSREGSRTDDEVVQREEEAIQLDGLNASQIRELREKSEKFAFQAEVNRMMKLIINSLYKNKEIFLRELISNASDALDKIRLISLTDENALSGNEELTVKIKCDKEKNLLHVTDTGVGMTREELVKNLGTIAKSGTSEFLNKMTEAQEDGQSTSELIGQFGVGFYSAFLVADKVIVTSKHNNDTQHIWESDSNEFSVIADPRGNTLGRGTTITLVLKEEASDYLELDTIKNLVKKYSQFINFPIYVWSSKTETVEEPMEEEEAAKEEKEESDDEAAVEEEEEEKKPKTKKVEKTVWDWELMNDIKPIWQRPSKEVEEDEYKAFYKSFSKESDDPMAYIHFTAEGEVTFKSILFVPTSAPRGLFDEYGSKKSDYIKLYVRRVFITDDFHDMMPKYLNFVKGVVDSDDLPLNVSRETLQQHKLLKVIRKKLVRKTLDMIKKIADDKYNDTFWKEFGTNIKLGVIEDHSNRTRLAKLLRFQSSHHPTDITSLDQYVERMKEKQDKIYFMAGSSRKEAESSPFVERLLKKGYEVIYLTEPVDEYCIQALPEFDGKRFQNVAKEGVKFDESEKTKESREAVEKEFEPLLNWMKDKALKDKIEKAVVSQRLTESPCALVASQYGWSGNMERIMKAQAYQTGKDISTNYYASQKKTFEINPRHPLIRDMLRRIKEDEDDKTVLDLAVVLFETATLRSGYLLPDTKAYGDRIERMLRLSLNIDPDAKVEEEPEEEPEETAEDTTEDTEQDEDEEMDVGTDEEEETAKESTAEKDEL

Compound: C[C@H](Oc1cc(-c2cnn(C3CCNCC3)c2)cnc1N)c1c(Cl)ccc(F)c1Cl [(5)-crizotinib]
- AvgP [1]: 0.2785
- SC.Exp. 1-1 [1]: 1
- SC.Exp. 1-2 [1]: 2
- SC.Exp. 2-1 [1]: 0
- SC.Exp. 2-2 [1]: 0
- Sum (SC.Exp.) [1]: 3
- AvgP [2]: 0.191
- SC.Exp. 1-1 [2]: 0
- SC.Exp. 1-2 [2]: 2
- SC.Exp. 2-1 [2]: 0
- SC.Exp. 2-2 [2]: 0
- Sum (SC.Exp.) [2]: 2
- AvgP [3]: 0.1891
- SC.Exp. 1-1 [3]: 2
- SC.Exp. 1-2 [3]: 0
- SC.Exp. 2-1 [3]: 0
- SC.Exp. 2-2 [3]: 0
- Sum (SC.Exp.) [3]: 2
- AvgP [4]: 0.228
- SC.Exp. 1-1 [4]: 13
- SC.Exp. 1-2 [4]: 8
- SC.Exp. 2-1 [4]: 0
- SC.Exp. 2-2 [4]: 0
- Sum (SC.Exp.) [4]: 21
- AvgP [5]: 0.4442
- SC.Exp. 1-1 [5]: 6
- SC.Exp. 1-2 [5]: 4
- SC.Exp. 2-1 [5]: 0
- SC.Exp. 2-2 [5]: 0
- Sum (SC.Exp.) [5]: 10
- AvgP [6]: 0.4042
- SC.Exp. 1-1 [6]: 3
- SC.Exp. 1-2 [6]: 3
- SC.Exp. 2-1 [6]: 0
- SC.Exp. 2-2 [6]: 0
- Sum (SC.Exp.) [6]: 6
- AvgP [7]: 0.3255
- SC.Exp. 1-1 [7]: 4
- SC.Exp. 1-2 [7]: 4
- SC.Exp. 2-1 [7]: 0
- SC.Exp. 2-2 [7]: 0
- Sum (SC.Exp.) [7]: 8
- AvgP [8]: 0.2511
- SC.Exp. 1-1 [8]: 2
- SC.Exp. 1-2 [8]: 1
- SC.Exp. 2-1 [8]: 0
- SC.Exp. 2-2 [8]: 0
- Sum (SC.Exp.) [8]: 3
- AvgP [9]: 0.3518
- SC.Exp. 1-1 [9]: 2
- SC.Exp. 1-2 [9]: 2
- SC.Exp. 2-1 [9]: 0
- SC.Exp. 2-2 [9]: 0
- Sum (SC.Exp.) [9]: 4
- AvgP [10]: 0.3081
- SC.Exp. 1-1 [10]: 3
- SC.Exp. 1-2 [10]: 2
- SC.Exp. 2-1 [10]: 0
- SC.Exp. 2-2 [10]: 0
- Sum (SC.Exp.) [10]: 5
- AvgP [11]: 0
- SC.Exp. 1-1 [11]: 2
- SC.Exp. 1-2 [11]: 2
- SC.Exp. 2-1 [11]: 3
- SC.Exp. 2-2 [11]: 2
- SC.Exp. Sum [11]: 9
